Laboratory results taken from patent publication US20130004979A1, “GLYCOSYLTRANSFERASE REVERSIBILITY FOR SUGAR NUCLEOTIDE SYNTHESIS AND MICROSCALE SCANNING” (WISCONSIN ALUMNI RESEARCH FOUNDATION, priority 2010, published 2013).
Converted amounts (≈) assume the structure as drawn.

Columns and labels:
OleD variant TDP-16 [1] = biological target: T1, OleD variant TDP-16 (Streptomyces antibioticus, UniProt Q53685, A242L/P67T/Q268V/S132F); assay: NDP screening with 2-chloro-4-nitrophenyl glucoside (9); type: biochemical; conditions: donor 9, TDP-16, NDP as acceptor
Experimental: Reactions were allowed to proceed for 5 hours, quenched with an equal volume of 40 mM phosphoric acid (adjusted to pH 6.5 with triethylamine) and heated for 30 seconds on a heat block. Following, samples were centrifuged at 10,000 g for 30 min at 0° C. and the supernatant removed for analysis. The clarified reaction mixtures were analyzed by analytical reverse-phase HPLC. HPLC was conducted with a Supelcosil LC18-T (3 μm, 150×4.6 mm) column (from Sigma-Aldrich St. Louis, Mo., USA) with a gradient of 0% B to 100% B over 20 min (A=40 mM phosphoric acid [adjusted to pH 6.5 with triethylamine]; B=10% MeOH in 40 mM phosphoric acid [adjusted to pH 6.5 with triethylamine]; flow rate=0.5 mL min-1) and detection monitored at 254 nm.

[2] = biological target: OleD variant P67T/S312F/A242L/Q268V (Streptomyces antibioticus, UniProt Q53685, A242L/P67T/Q268V/S132F); assay: Determination of equilibrium constants of the glucoside donor/UDP reaction; type: biochemical; conditions: with UDP, Tris-HCl 50 mM pH 8.5, 298K, relative to UDP-Glc (33a); calculated from Keq
Experimental: Equilibrium constants (Keq, pH8.5) were also determined for 1, 2, 4, 7, and 9 and utilized to calculate the corresponding Gibbs free energy according to equation (1).
ΔG°pH8.5=−RT ln(Keq,pH8.5)
Reactions contained 21 μM (200 μg) OleD variant P67T/S312F/A242L/Q268V, 1 mM UDP, and 1 mM β-D-glucopyranoside donor (1, 2, 4, 7, or 9) in Tris-HCl buffer (50 mM, pH 8.5) in a final total volume of 200 μl. Multiple time course evaluations were conducted to determine the time at which each reaction reached equilibrium (<2 min for 7, 9; <90 min for 1, 4; 200 min for 2). Following, each analysis was conducted in triplicate to the minimum observed time point for equilibrium and samples were processed and evaluated as described below to determine concentrations of UDP to 33a (UDP-α-D-glucose). […] Glucoside and aglycon concentrations were inferred from the determined concentrations of UDP and 33a.

OleD variant = OleD variant (Streptomyces antibioticus, UniProt Q53685, A242L/P67T/Q268V/S132F); assay: β-D-glucoside screening: reverse reaction forming UDP-/TDP-glucose; type: biochemical; conditions: in combination with OleD variant TDP-16
From the text: The availability of a GT capable of utilizing a wide array of both simple aromatic acceptors and sugar nucleotides set the stage for this systematic study. With the aid of a crystal structure (10), previous directed evolution and engineering of an inverting macrolide-inactivating GT from S. antibioticus (OleD) identified several highly permissive variants for both sugar nucleotides (14 known sugar substrates) and acceptors (>70 structurally diverse known substrates) in the context of the forward reaction (11-16). Utilizing the aglycons recognized in forward reactions as a template, a set of 32 putative ü-D-glucopyranosides donors were synthesized and tested against a series of OleD variants in reverse reactions for production of UDP-J-D-glucose (UDP-Glc, 33a) in the presence of UDP (FIG. 14a). The syntheses of these putative donors required 1-3 steps (37% average overall yield) and, in all but one case (19), provided the desired E-anomer exclusively. Of the 32 putative donors evaluated, 9 (1-9) led to UDP-Glc (33a) formation with all variants examined (FIG. 14b).
Reactions containing 2.1 μM (10 μg) of purified OleD variant, 1 mM of UDP or TDP, and 1 mM of β-D-glucopyranoside (1-32) in Tris-HCl (50 mM, pH 8.5) with a final volume of 100 μl were incubated at room temperature for 1 hour. Samples were frozen in a bath of dry ice and acetone and stored at −20° C. […]

[3] = Solubility of donor under kinetic assay conditions; type: physicochemical; conditions: 50 mM Tris-HCl buffer, aqueous buffer; 50 mM Tris-HCl (pH 8.5)
OleD variant TDP-16 [4] = biological target: T1, OleD variant TDP-16; assay: Single enzyme coupled colorimetric screen of putative aglycon acceptors (410 nm); type: biochemical; conditions: 0.5 mM 9, 0.5 mM acceptor, 5 μM UDP, TDP-16, 410 nm over 480 min
Experimental: Specifically, each 100 PI reaction in the 96-well plate contained the sugar donor 9 (0.5 mM), a putative aglycon acceptor (0.5 mM), a catalytic amount of UDP (5 3M) and TDP-16 (11 3M) and reaction progress was monitored at 410 nm over 480 min. […] Based upon this cumulative rapid analysis, […] (62-103) led to a positive response (designated as three standard deviations above the mean for control reactions), 37 of which (62-93, 96, 97, 99, 101, 103) were subsequently confirmed by HPLC and/or LC/MS to lead to products consistent with glucoside formation.
Reactions containing 10.5 μM (50 μg) OleD variant TDP-16, 5 μM of UDP, 0.5 mM final acceptor (58 [as a positive control] and 62-111), and 0.5 mM 2-chloro-4-nitrophenyl-β-D-glucoside (9) in Tris-HCl buffer (50 mM, pH 8.5) with a final volume of 100 μl were prepared in a 96 well flat bottom Bacti plate (0.4 mL well^−1; Nagle Nunc International, Rochester, N.Y., USA). Absorbance measurements were recorded every 2 min at 410 nm for 8 hours on a FLUOstar Optima plate reader (BMG, Durham, N.C., USA) with the plate shaken within the reader for 5 seconds before collection of each time point. Reactions containing final acceptor were run at n=1, control reactions lacking final acceptor were run at n=6, and control reactions lacking both final acceptor and UDP were run at n=3. […]

OleD variant TDP-16 [5] = biological target: T1, OleD variant TDP-16; assay: 2-chloro-4-nitrophenyl glycoside screening for NDP-sugar formation; type: biochemical
Experimental: Aliquots were removed at various time points, mixed with an equal volume of ddH2O, frozen in a bath of dry ice and acetone, and stored at −20° C. Following, samples were thawed at 4° C. and filtered through a MultiScreen Filter Plate (from Millipore, Billerica, Mass., USA) according to manufacturer's instructions. Samples were evaluated for formation of NDPsugar by analytical reverse-phase HPLC with a 250 mm×4.6 mm Gemini-NX 5μ C18 column (from Phenomenex, Torrance, Calif., USA) using a linear gradient of 0% to 50% CH3CN (solvent B) over 25 minutes (solvent A=50 mM PO4^−2, 5 mM tetrabutylammonium bisulfate, 2% acetonitrile [pH adjusted to 6.0 with KOH]; flow rate=1 ml min^−1; A254 nm).

T1 sequence (Q53685 other isoform, or with tags, fused parts or gaps P55A/P67T/R82V/R83E/T84P/S132F/A242L/Q268V): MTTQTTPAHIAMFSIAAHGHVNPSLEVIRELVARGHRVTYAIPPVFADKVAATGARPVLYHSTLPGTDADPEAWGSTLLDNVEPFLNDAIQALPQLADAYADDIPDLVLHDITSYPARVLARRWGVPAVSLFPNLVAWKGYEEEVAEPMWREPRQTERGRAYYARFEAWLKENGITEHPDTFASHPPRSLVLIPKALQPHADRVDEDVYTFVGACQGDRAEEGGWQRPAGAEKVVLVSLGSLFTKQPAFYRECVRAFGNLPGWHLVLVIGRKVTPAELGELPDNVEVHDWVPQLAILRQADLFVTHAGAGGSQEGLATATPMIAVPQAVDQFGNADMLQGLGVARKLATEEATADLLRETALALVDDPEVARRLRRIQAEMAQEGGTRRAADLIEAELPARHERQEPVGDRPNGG
OleD variant P67T/S312F/A242L/Q268V, sequence (Q53685 other isoform, or with tags, fused parts or gaps P55A/P67T/R82V/R83E/T84P/S132F/A242L/Q268V): as above
OleD variant, sequence (Q53685 other isoform, or with tags, fused parts or gaps P55A/P67T/R82V/R83E/T84P/S132F/A242L/Q268V): as above

With `Nc1ncnc2c1ncn2[C@@H]1O[C@H](COP(=O)(O)OP(=O)(O)O)[C@@H](O)[C@H]1O` [ADP] the NDP-sugar formation efficiency (OleD variant TDP-16 [1]) was “much lower efficiency”.

For `OCC1O[C@@H](Oc2ccccc2Cl)C(O)[C@@H](O)[C@@H]1O` (stereo partly drawn) [Compound 4, 2-chlorophenyl-β-D-glucopyranoside], the “ΔG°pH8.5 of donor to UDP-Glc transformation” value [2] was “+2.55 kcal mol-1”.

With `O=[N+]([O-])c1ccc(O[C@@H]2OC(CO)[C@@H](O)[C@H](O)C2O)c(Cl)c1` (stereo partly drawn) [Compound 9, 2-chloro-4-nitrophenyl-β-D-glucopyranoside] the “overall yields of UDP-Glc (33a) or TDP-Glc (33b)” value (OleD variant) was “best overall yields”, the “ΔG°pH8.5 of donor to UDP-Glc transformation” value [2] was −2.78 kcal mol-1 and the solubility [3] was about 25 mM (≈ 8390 µg/mL).

For `O=c1c(-c2ccc(O)cc2)coc2cc(O)cc(O)c12` [Compound 62, genistein], the “response in colorimetric screen (three standard deviations above the mean for control reactions)” value (OleD variant TDP-16 [4]) was “hits”.

For `O=C(O)c1cn(C2CC2)c2cc(N3CCNCC3)c(F)cc2c1=O` [Compound 92, ciprofloxacin], the “response in colorimetric screen (three standard deviations above the mean for control reactions)” value (OleD variant TDP-16 [4]) was “hits”.

In the case of `Nc1nc2c(ncn2[C@@H]2O[C@H](COP(=O)(O)OP(=O)(O)O)[C@@H](O)[C@H]2O)c(=O)[nH]1` [GDP], the NDP-sugar formation efficiency (OleD variant TDP-16 [1]) is reported as “much lower efficiency”.

In the case of `O=[N+]([O-])c1ccc(O[C@H]2OC[C@@H](O)[C@H](O)[C@H]2O)c(Cl)c1` [α-anomer of 38], the “turnover as donor substrate (anomer)” value (OleD variant TDP-16 [5]) is reported as “no turnover”.
